Assay results reported in US9730679B1, “Device for sterile uterine sampling and drug delivery” (University of South Florida, priority 2012, dated 2017).
Converted amounts (≈) assume the structure as drawn.

How the values were obtained:
[1] = system: Escherichia coli (ATCC 25922); test: Minimum inhibitory concentration, visual turbidimetric method with OD600 of MIC tubes; type: cell-based; conditions: ATCC25922, 4 h, E. coli, four hours incubation at 37° C., read-out: minimum inhibitory doxycycline concentration, MIC
Method: To determine the antibacterial activity of the doxycycline-loaded chitosan nanoparticles, minimum inhibitory concentrations (MICs) and minimum bactericidal concentrations (MBCs) were evaluated. The procedures for both assays were adopted from Lee et al. (Blanchet […]. Forward Selection of Explanatory Variables. Ecology. 2008; 89:2623-2632). MIC is the lowest concentration of DCNPs that inhibits bacterial growth. For the analyses, a visual turbidimetric method was used. Freshly prepared nanoparticles, blank and drug-loaded, were UV-sterilized for ten minutes. […] A 500 μL aliquot of this solution with sterilized particles was added to a tube containing Luria-Bertani (LB) broth for a total volume of 2 mL. A serial dilution, with a dilution factor of 0.3, was performed for the remaining six tubes. A parallel series of experiments was also run using unencapsulated doxycycline. Under sterile conditions, the tubes containing particles were inoculated with 1.0×10^5 colony-forming units (CFUs)/mL of Escherichia coli cells in LB broth, then incubated at 37° C. under agitation for four hours. Following the incubation, the tubes were assessed visually for the appearance of turbidity (i.e., bacterial growth). […] All MIC tubes were analyzed to assess the amount of bacteria present by measuring optical density of the suspension at 600 nm (OD600) and then calculating the number of bacterial cells present.

[2] = system: normal human ovarian surface epithelial (OSE) cells; type: cell-based; conditions: 5 days
Method: Cytotoxicity of the DCNPs was determined by treating normal human ovarian surface epithelial (OSE) cells with different concentrations of doxycycline-loaded nanoparticles, then monitoring cell viability over the next five days. The OSE cells were cultured for 4 to 7 days in flasks containing medium199/MCDB105 media supplemented with 10% fetal bovine serum. The cells were removed from the flasks and counted, and then 100 μL of medium containing cells was added to the wells of a 96-well plate to give final cell concentrations of 5×10^2, 1.0×10^3, or 2.0×10^3 cells/mL. After 24 hours incubation at 37° C., the cells were treated with blank nanoparticles, DCNP4 (1 and 2 μg/mL), DCNP6 (1 and 2 μg/mL), or unencapsulated doxycycline (1 and 2 μg/mL). The plate was then incubated at 37° C. Bright microscopy was used to examine the cell morphology after treatment just before the assessing for cytotoxicity. Cytotoxicity was assessed on days 1, 3, and 5 by WST-1 assay. WST-1 assay reagent (10 μL) was added to each well, followed by incubation for another 4 hours at 37° C. and then spectrophotometric assessment of cell viability. […] This dye was quantified using a Biotex Synergy multiplate reader to measure absorbance at 450 nm (reference wavelength was 630 nm). All treatments were assayed in triplicate (n=3) and calculated according to equation 5: […]

With C[C@H]1c2cccc(O)c2C(=O)C2=C(O)[C@]3(O)C(=O)C(C(N)=O)=C(O)[C@@H](N(C)C)[C@@H]3[C@@H](O)[C@@H]21 [Doxy, Doxycycline] the MIC [1] was 13 µg/mL (≈ 29.3 µM) and the “decrease in cell viability” value [2] was 61%.
